In patent US12687539B2 (priority 2019, dated 2026):

Columns and labels:
[1] = test system: DAS5G11E7 monoclonal antibody; format: binding, mouse
rat = settings: in vivo; cited from earlier work

SMILES: CC(=O)OC[C@]12CCC(C)=C[C@H]1O[C@@H]1[C@H](O)[C@@H](OC(C)=O)[C@@]2(C)[C@]12CO2 [DAS, diacetoxyscirpenol]
- Cross reactivity [1]: 100%
- LDS (rat): 0.75 mg/kg
